Measured values: patent US20110223630A1, “METHOD FOR SCREENING FOR COMPOUNDS THAT INHIBIT NEURODEGENERATION” (priority 2008, published 2011)
Residues, ends and D or L forms follow the SMILES beside them. *: point of attachment. Cbz = O=C(OCc1ccccc1)*; CH2F = FC*

How the values were obtained:
commissural neurons = test: Dorsal spinal cord (commissural explant) survival assay; type: cell-based, rat
Description: To examine functional roles of DR6 in axonal degeneration and programmed cell death of commissural neurons, an RNAi-based dorsal spinal cord survival assay (Kennedy et al., Cell, 78:425-435 (1994); Wang et al., supra, 1999) was conducted (see FIG. 3). E13 rat or E11.5 mouse embryos were placed in L15 medium (Gibco) and siRNAs (IDT) together with green fluorescent protein (“GFP”)-encoding plasmids were injected into the neural tubes. The siRNAs and plasmids were then delivered to dorsal progenitor cells by electroporation. Dorsal spinal cord explants were dissected out, embedded into a 3D-collagen gel matrix, and cultured in Opti-MEM/F12 medium (Invitrogen) with recombinant netrin-1 ([…]) and 5% horse serum (Sigma) at 37° C. in a 5% CO2 environment. Within 16 hours in response to chemo-attractant netrin-1, commissural axons grow out of the explant into the collagen matrix gel (Kennedy et al., supra, 1994). Commissural axons are visualized by GFP fluorescence by observation using an inverted microscope. […]
Control non-targeting, or targeting DR6 siRNA #2, or targeting DR6 siRNA #3 (IDT) together with either wild-type or mis-match DR6 cDNA and GFP-encoding plasmids. […] Within 16 hours in response to chemo-attractant netrin-1 commissural axons grow out of the explant into the collagen matrix gel (Kennedy et al., Cell 78:425-435 (1994). Commissural axons are visualized by GFP fluorescence by observation using inverted microscope. After 48 hours in culture in the absence of trophic factor support derived from the floorplate, commissural neurons undergo programmed cell death and their axons degenerate (Wang et al., Nature, 401:765-769 (1999)) (FIG. 4B). However, the axonal degeneration program can be blocked by introduction of a targeting DR6-specific siRNA #3 (FIG. 4B). […]
A dorsal spinal cord survival assay (as described in Example 2 above) was conducted using anti-DR6 antibodies. Microscopic observation (using green fluorescence channel for GFP) was employed to visualize commissural axons. […]

[1] = patients taking stable doses of Donepezil; changes from baseline; cited from earlier work
sensory neurons = test: NGF deprivation assay in Campenot Chambers, local sensory axon degeneration (TUJ1 stain); type: cell-based, mouse
Description: Materials and methods used to generate the data shown in this figure are as follows. To examine whether ligand is required for DR6 function in sensory axonal degeneration, a compartmented culture analysis of sensory axon growth and degeneration was carried out as follows. A Campenot nerve cell chamber system was used to isolate neuronal processes (axons) from the cell bodies in different compartments (separate fluid environments), analogous to neuronal cell bodies in one location of the nervous system projecting their axons to a distal target in another location. The assay was carried out as originally described by Campenot (Campenot et al., J. Neurosci. 11(4): 1126-39 (1991)) with the following modifications. Briefly, 35-mm tissue culture dishes were coated with PDL/Laminin and scratched with a pin rake (Tyler Research) to generate tracks, as illustrated for example in FIGS. 1 and 4 of Campenot et al., supra. […]
To trigger local axonal degeneration, NGF-containing medium from axonal compartments was substituted with neurobasal medium with an NGF blocking antibody (anti-NGF, Genentech, Inc., 20 ug/ml). Zero hours, 6 hours, or 24 to 48 hours following NGF deprivation, sensory neurons were fixed in 4% PFA for 30 minutes at room temperature and processed for immunofluorescence staining with axonal marker TUJ-1 (Covance, 1:500 dilution) to visualize degenerating axons by fluorescence microscopy (FIG. 11B) (as above described in Example 7). […]
To examine whether ligand is required for DR6 function in axonal degeneration program triggered by NGF withdrawal, 30 μg/ml of hDR6-ECD-Fc immunoadhesin protein (described in Example 3 above) or 30 μg/ml of a control Fc (Genentech, Inc.) was included together with anti-NGF treatment in axonal compartments of Campenot Chambers. Zero to 24 hours after NGF deprivation, axons in Campenot Chambers were fixed with 4% PFA/PBS and visualized by immuno-fluorescence staining with TUJ-1 (1:500, Covance)/secondary antibody conjugated to a fluorescence group Alexa 488 (Molecular Probes, BD) (FIG. 11B). […]

[2] = test system: DR6-AP binding sites on BAX null sensory axons; test: In situ DR6-AP sensory axon binding assay after NGF withdrawal; type: cell-based, mouse; details: OM99-2 1 uM; BAX null sensory axons E12.5
Description: For the in situ DR6-AP sensory axon binding assay, either wild-type or Bax null sensory explants were cultured in Neurobasal medium/B27 (Invitrogen) as outlined in the Examples 7-8 above, with 50 ng/ml NGF (Roche). Two days post-plating, DRG explants were either left untreated or deprived from NGF as described above in Examples 7-8. Bax inhibitory peptide was added where indicated on FIG. 12B (10 uM, Bax-V5, Tocris). Twelve hours post-NGF deprivation, DRG explants were washed twice with the binding buffer (HBSS, Gibco Cat. No. 14175-095, with 0.2% BSA, 0.1% NaN3, 5 mM CaCl2, 1 mM MgCl2, 20 mM HEPES, pH=7.0). AP binding assay was then carried out by making a 1:1 mixture of DR6-AP conditioned medium and the binding buffer (or control AP conditioned medium and the binding buffer), which was applied directly to DRG explants in 8-well culture slides (Becton, Dickinson and Company) and incubated for 90 minutes at room temperature.
Following the incubation, unbound DR6-AP proteins were washed away by rinsing DRG explants five times with the binding buffer. DRG explants were then fixed with 3.7% formaldehyde diluted in PBS, for 12 minutes at room temperature. The remaining formaldehyde was removed by rinsing DRG explants 3 times with HBS buffer (20 mM HEPES pH=7.0, 150 mM NaCl). Endogenous AP activity was blocked by heat inactivation at 65° C. in HBS buffer for 30 minutes. […]

5′-CAAUAGGUCAGGAAGAUGGCU-3′ [DR6-specific siRNA #3]
axonal degeneration of commissural neurons (commissural neurons; DR6 siRNA electroporated with GFP plasmid, 48 hours in culture without floorplate trophic support): blocked

CC12CC3CC(C)(C1)CC(N)(C3)C2 [Memantine]
outcome measures SIB, ADCS-ADL19, CIBIC-Plus, NPI, BGP vs placebo [1]: exhibiting a benefit over placebo

CC[C@H](C)[C@H](NC(=O)OCc1ccccc1)C(=O)N[C@@H](CCC(=O)OC)C(=O)N[C@H](C(=O)N[C@@H](CC(=O)OC)C(=O)CF)[C@@H](C)O [Z-IETD-FMK] (Cbz-IE(OMe)TD(OMe)-CH2F)
sensory axonal degeneration after anti-NGF (sensory neurons; neurons cultured 5 days, then 24 hours, SP 600125 1 uM, Z-IETD-FMK 10 uM, Z-DEVD-FMK 10 uM): delayed

(L)-HIV-TAT48-57-PP-JBD20 [L-JNK-I]
axonal degeneration of commissural neurons (commissural neurons; peptide JNK inhibitor at 1 μM): partially blocked axonal degeneration

OM99-2
disappearance of DR6-AP binding sites from sensory axons following NGF withdrawal [2]: can block the disappearance of DR6-AP binding sites
sensory axonal degeneration in absence of NGF (sensory neurons; BACE inhibitor 1 uM, FIG. 15C): blocked

hDR6-ECD-Fc: human DR6 extracellular domain sequence fused with Fc, SEQ ID NO: 4
commissural axon degeneration (commissural neurons; 48 hours, 30 μg/ml or 10 μg/ml hDR6-ECD-Fc): delayed
sensory axonal degeneration induced by NGF withdrawal (sensory neurons; 30 μg/ml in axonal compartment with anti-NGF, 0, 6 and 24 hours, vs control Fc): delayed sensory axonal degeneration
